Source: patent US20080234262A1 (Wyeth, priority 2007, published 2008)

Tests used:
prostate line LNCap = experiment: In vitro cell culture growth assay (MTS), LNCap; format: cell-based, human; conditions: LNCap cells, three days after drug treatment;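 also: viable cell density read by absorbance at 490 nm, growth expressed as percent of vehicle-treated cells on the same plate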
breast line MDA468 = experiment: In vitro cell culture growth assay (MTS), MDA468; format: cell-based, human; conditions: MDA468 cells, three days after drug treatment
How it was run: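 Three-day drug treatment starting 1 day post-plating; viable cells quantified via MTS metabolism (A490); effect normalised to in-plate vehicle controls as % growth.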

PI3K = PI3K (Homo sapiens, UniProt P42336); experiment: Fluorescence polarization assay for PI3K; format: biochemical; conditions: PI3Kα; read-out: PI3Kα IC50;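 also: PI3K kinase reaction on PIP2 with ATP, 30-60 min, product sensed by GST-GRP with red probe in fluorescence polarization (mP), controls without enzyme and at zero time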
PI3K, sequence (P42336 whole entry): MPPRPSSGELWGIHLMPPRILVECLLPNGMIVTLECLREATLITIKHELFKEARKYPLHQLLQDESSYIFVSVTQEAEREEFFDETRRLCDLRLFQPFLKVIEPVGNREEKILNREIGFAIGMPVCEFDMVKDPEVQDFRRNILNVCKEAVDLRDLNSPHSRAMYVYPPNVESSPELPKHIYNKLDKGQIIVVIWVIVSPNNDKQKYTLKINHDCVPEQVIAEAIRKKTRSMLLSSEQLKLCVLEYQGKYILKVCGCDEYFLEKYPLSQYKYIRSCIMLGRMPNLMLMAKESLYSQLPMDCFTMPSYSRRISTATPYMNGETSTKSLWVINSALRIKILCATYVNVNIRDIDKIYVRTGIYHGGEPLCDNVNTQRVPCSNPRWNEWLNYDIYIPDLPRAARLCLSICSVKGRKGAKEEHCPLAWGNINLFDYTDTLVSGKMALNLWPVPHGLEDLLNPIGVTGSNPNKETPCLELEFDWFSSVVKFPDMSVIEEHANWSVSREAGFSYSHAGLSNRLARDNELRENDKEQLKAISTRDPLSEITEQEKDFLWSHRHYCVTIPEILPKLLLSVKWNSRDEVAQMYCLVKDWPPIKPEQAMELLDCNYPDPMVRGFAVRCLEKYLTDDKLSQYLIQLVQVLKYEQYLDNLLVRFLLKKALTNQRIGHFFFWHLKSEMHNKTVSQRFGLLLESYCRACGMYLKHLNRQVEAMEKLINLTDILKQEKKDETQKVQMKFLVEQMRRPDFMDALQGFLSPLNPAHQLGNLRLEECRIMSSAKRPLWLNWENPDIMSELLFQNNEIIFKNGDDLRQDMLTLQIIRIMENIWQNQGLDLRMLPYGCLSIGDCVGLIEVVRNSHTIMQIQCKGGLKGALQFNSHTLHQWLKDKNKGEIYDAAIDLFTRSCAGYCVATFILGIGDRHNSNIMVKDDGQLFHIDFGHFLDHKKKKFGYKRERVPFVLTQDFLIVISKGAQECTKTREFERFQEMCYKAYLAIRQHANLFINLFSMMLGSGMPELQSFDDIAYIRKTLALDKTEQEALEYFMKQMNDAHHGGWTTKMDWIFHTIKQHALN
PI3K, sequence (P27986 whole entry partner): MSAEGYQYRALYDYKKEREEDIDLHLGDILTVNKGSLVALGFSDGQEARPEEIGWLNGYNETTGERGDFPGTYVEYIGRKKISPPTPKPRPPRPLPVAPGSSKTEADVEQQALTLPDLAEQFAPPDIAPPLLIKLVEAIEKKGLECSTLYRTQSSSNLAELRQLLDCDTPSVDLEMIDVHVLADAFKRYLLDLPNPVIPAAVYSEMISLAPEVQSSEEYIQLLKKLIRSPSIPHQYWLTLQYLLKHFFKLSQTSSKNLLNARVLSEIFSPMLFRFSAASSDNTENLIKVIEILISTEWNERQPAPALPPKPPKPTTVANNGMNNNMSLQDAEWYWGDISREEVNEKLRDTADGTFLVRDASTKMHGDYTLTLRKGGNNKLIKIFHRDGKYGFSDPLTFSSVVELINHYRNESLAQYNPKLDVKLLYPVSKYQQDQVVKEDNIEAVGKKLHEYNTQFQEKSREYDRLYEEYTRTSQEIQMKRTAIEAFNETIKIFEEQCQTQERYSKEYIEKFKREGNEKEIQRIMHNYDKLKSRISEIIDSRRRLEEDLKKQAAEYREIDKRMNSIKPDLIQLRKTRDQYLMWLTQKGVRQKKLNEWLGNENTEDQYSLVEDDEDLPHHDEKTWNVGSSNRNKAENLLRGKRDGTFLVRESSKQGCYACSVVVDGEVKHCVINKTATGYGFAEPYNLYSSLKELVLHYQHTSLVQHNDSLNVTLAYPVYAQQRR

| SMILES | IC50 (prostate line LNCap) | IC50 (breast line MDA468) | IC50 (PI3K) | IC50 (prostate line LNCap; Homo sapiens, LNCaP, 72 h) | IC50 (breast line MDA468; Homo sapiens, 72 h) |
| --- | --- | --- | --- | --- | --- |
| CNC(=O)Nc1ccc(-c2nc(N3CCOCC3)c3cnn(C4CCN(Cc5cccc(C)c5)CC4)c3n2)cc1 [Compound 674, 1-methyl-3-(4-{1-[1-(3-methylbenzyl)piperidin-4-yl]-4-morpholin-4-yl-1H-pyrazolo[3,4-d]pyrimidin-6-yl}phenyl)urea] | 52 nM | 190 nM | 42 nM |  |  |
| CC(C)(C)OC(=O)N1CCC(n2ncc3c(N4CCOCC4)nc(-c4ccc(NC(=O)Nc5ccncc5)cc4)nc32)CC1 [Compound 771, tert-butyl 4-(4-morpholin-4-yl-6-{4-[(pyridin-4-ylcarbamoyl)amino]phenyl}-1H-pyrazolo[3,4-d]pyrimidin-1-yl)piperidine-1-carboxylate] |  |  | 59 nM | 70 nM | 190 nM |
| CNC(=O)Nc1ccc(-c2nc(N3CCOCC3)c3cnn(C4CCN(C(=O)N(C)C)CC4)c3n2)cc1 [Example 473, N,N-dimethyl-4-(6-{4-[(methylcarbamoyl)amino]phenyl}-4-morpholin-4-yl-1H-pyrazolo[3,4-d]pyrimidin-1-yl)piperidine-1-carboxamide] |  |  | 209 nM | 200 nM | 500 nM |
| NC(=O)CN1CCC(n2ncc3c(N4CCOCC4)nc(-c4ccc5[nH]ccc5c4)nc32)CC1 [Compound 245, 2-{4-[6-(1H-indol-5-yl)-4-morpholin-4-yl-1H-pyrazolo[3,4-d]pyrimidin-1-yl]piperidin-1-yl}acetamide] |  |  | 2660 nM | 800 nM | 2800 nM |
| CCOC(=O)N1CCC(n2ncc3c(N4CCOC[C@H]4C)nc(-c4ccc(NC(=O)Nc5ccccc5)cc4)nc32)CC1 [Compound 891, ethyl 4-(4-[(3R)-3-methylmorpholin-4-yl]-6-{4-[(phenylcarbamoyl)amino]phenyl}-1H-pyrazolo[3,4-d]pyrimidin-1-yl)piperidine-1-carboxylate] |  |  | 590 nM | 20 nM | 210 nM |
| CNC(=O)Nc1ccc(-c2nc(N3CCOCC3)c3cnn(C4CCN(Cc5cccnc5)CC4)c3n2)cc1Cl [Compound 730, 1-(2-chloro-4-{4-morpholin-4-yl-1-[1-(pyridin-3-ylmethyl)piperidin-4-yl]-1H-pyrazolo[3,4-d]pyrimidin-6-yl}phenyl)-3-methylurea] |  |  | 364 nM | 420 nM | 1800 nM |
| O=C(NCCF)Nc1cc(F)c(-c2nc(N3CCOCC3)c3cnn(C4CCN(C(=O)c5cccnc5)CC4)c3n2)cc1F [Example 467, 1-(2,5-difluoro-4-{4-morpholin-4-yl-1-[1-(pyridin-3-ylcarbonyl)piperidin-4-yl]-1H-pyrazolo[3,4-d]pyrimidin-6-yl}phenyl)-3-(2-fluoroethyl)urea] |  |  | 2980 nM | 1200 nM | 2200 nM |
| CNC(=O)Nc1ccc(-c2nc(N3CCOCC3)c3cnn(C4CCC5(CC4)OCCO5)c3n2)cc1 [Example 321, 1-{4-[1-(1,4-dioxaspiro[4.5]dec-8-yl)-4-morpholin-4-yl-1H-pyrazolo[3,4-d]pyrimidin-6-yl]phenyl}-3-methylurea] |  |  | 74 nM | 27 nM | 100 nM |
| CC(C)(C)OC(=O)N1CCC(n2ncc3c(N4CCOCC4)nc(-c4ccc(NC(=O)Nc5ccc(CO)cc5)cc4)nc32)CC1 [Compound 953, tert-butyl 4-{6-[4-({[4-(hydroxymethyl)phenyl]carbamoyl}amino)phenyl]-4-morpholin-4-yl-1H-pyrazolo[3,4-d]pyrimidin-1-yl}piperidine-1-carboxylate] |  |  | 7 nM | 0.8 nM | 14 nM |
| O=CN1CCC(n2ncc3c(N4CCOCC4)nc(-c4ccc5[nH]ccc5c4)nc32)CC1 [Compound 518, 4-[6-(1H-indol-5-yl)-4-morpholin-4-yl-1H-pyrazolo[3,4-d]pyrimidin-1-yl]piperidine-1-carbaldehyde] |  |  | 2800 nM | 1000 nM | 3000 nM |
| Oc1cccc(-c2nc(N3CCOCC3)c3cnn(CCN4CCOCC4)c3n2)c1 [Compound 165] |  |  | 176 nM | 3000 nM | 12000 nM |
| COC(=O)N1CCC(n2ncc3c(N4CCOC(C)C4)nc(-c4ccc(NC(=O)NCCF)cc4)nc32)CC1 (stereo not drawn) [Compound 844, methyl 4-[6-(4-{[(2-fluoroethyl)carbamoyl]amino}phenyl)-4-(2-methylmorpholin-4-yl)-1H-pyrazolo[3,4-d]pyrimidin-1-yl]piperidine-1-carboxylate] |  |  | 896 nM | 59 nM | 700 nM |
| Nc1ccnc(-c2nc(N3CCOCC3)c3cnn(-c4ccccc4)c3n2)c1 [Compound 437, 2-(4-morpholin-4-yl-1-phenyl-1H-pyrazolo[3,4-d]pyrimidin-6-yl)pyridin-4-amine] |  |  | 1460 nM | 60000 nM | 60000 nM |
| CNC(=O)Nc1ccc(-c2nc(N3CCOCC3)c3cnn(C4CCN(C(=O)NC)CC4)c3n2)cc1 [Compound 722, N-methyl-4-(6-{4-[(methylcarbamoyl)amino]phenyl}-4-morpholin-4-yl-1H-pyrazolo[3,4-d]pyrimidin-1-yl)piperidine-1-carboxamide] | 2200 nM | 1800 nM | 148 nM |  |  |
| CNC(=O)Nc1ccc(-c2nc(N3CCOCC3)c3cnn(C4CCN(Cc5cccc(F)c5)CC4)c3n2)cc1 [Compound 428, 1-(4-{1-[1-(3-fluorobenzyl)piperidin-4-yl]-4-morpholin-4-yl-1H-pyrazolo[3,4-d]pyrimidin-6-yl}phenyl)-3-methylurea] |  |  | 30 nM | 27 nM | 200 nM |
| CONC(=O)Nc1ccc(-c2nc(N3CCOCC3)c3cnn(-c4ccccc4)c3n2)cc1 [Compound 541, 1-methoxy-3-[4-(4-morpholin-4-yl-1-phenyl-1H-pyrazolo[3,4-d]pyrimidin-6-yl)phenyl]urea] |  |  | 404 nM | 1800 nM | 5000 nM |
| CNC(=O)Nc1ccc(-c2nc(N3CCOCC3)c3cnn(C4CCN(C(=O)c5cccnc5Cl)CC4)c3n2)cc1 [Compound 669, 1-[4-(1-{1-[(2-chloropyridin-3-yl)carbonyl]piperidin-4-yl}-4-morpholin-4-yl-1H-pyrazolo[3,4-d]pyrimidin-6-yl)phenyl]-3-methylurea] | 80 nM | 460 nM | 100 nM |  |  |
| CNC(=O)Nc1ccc(-c2nc(N3CCOCC3)c3cnn(C4CCOCC4)c3n2)cc1 [Compound 939, 1-methyl-3-{4-[4-morpholin-4-yl-1-(tetrahydro-2H-pyran-4-yl)-1H-pyrazolo[3,4-d]pyrimidin-6-yl]phenyl}urea] |  |  | 44 nM | 140 nM | 500 nM |
| c1ccc(-n2ncc3c(N4CCOCC4)nc(-c4ccc(CN5CCOCC5)cc4)nc32)cc1 [Compound 130] |  |  | 822 nM | 60000 nM | 60000 nM |
| CNC(=NC#N)Nc1ccc(-c2nc(N3CCOCC3)c3cnn(C4CCN(Cc5cccnc5)CC4)c3n2)cc1 [Example 407, 2-cyano-1-methyl-3-(4-{4-morpholin-4-yl-1-[1-(pyridin-3-ylmethyl)piperidin-4-yl]-1H-pyrazolo[3,4-d]pyrimidin-6-yl}phenyl)guanidine] |  |  | 774 nM | 1700 nM | 3800 nM |
| O=C(Nc1ccccc1)Nc1ccc(-c2nc(N3CCOCC3)c3cnn(C4CCNCC4)c3n2)cc1 [Compound 777, 1-[4-(4-morpholin-4-yl-1-piperidin-4-yl-1H-pyrazolo[3,4-d]pyrimidin-6-yl)phenyl]-3-phenylurea] |  |  | 19 nM | 130 nM | 140 nM |
